In patent US8389534B2, “Pyrimidine non-classical cannabinoid compounds and related methods of use” (The University of Tennessee Research Foundation, priority 2008, dated 2013):
pEC50: −log10 of the molar value.

Legend:
[1] = test system: glioblastoma brain cancer cell line LN-229; experiment: Cytotoxicity assay (CCK8 viability); type: cell-based; details: Homo sapiens, cytotoxicity against LN-229 cells, 18 hours incubation
Method: Cytoxocity assay: Cells were seeded on a 96 well polystyrene plate in full serum media at a density of 75,000 cells per milliliter, 100 μL per well. Plates were incubated at 37° C. and 5% CO2 for 24 hours to allow cell attachment. Drug solutions were prepared in DMSO at 100× concentration and mixed 1:100 in 1% FBS media to yield the desired concentration. Drug-media mixtures were vortexed immediately prior to administration to cells. Full serum media was removed and replaced with drug-media mixtures and incubated for 18 hours. 10 μL of Cell Counting Kit 8 (CCK8, Dojindo# CK04-11) was added to each well to colormetrically assess viability. After 2-4 hours of incubation with the CCK8 dye, absorbance was read at 450 nm by a BioTek Synergy 2 plate reader.
The cytotoxicity of selected compounds against the glioblastoma brain cancer cell line LN-229 is depicted in Table 1.

Row | melting point [°C] | Compound | pEC50 [1]
1 | 336.6 | Oc1nc(Cc2ccccc2)nc(O)c1-c1ccccc1 | –
2 | – | CC(C)(c1nc(O)c(-c2cc(Cl)cc(Cl)c2)c(O)n1)C1CCCCC1 [Compound 8g, 2-(2-Cyclohexylpropan-2-yl)-5-(3,5-dichlorophenyl)pyrimidine-4,6-diol] | 4.63
3 | – | CC(C)(c1ccccc1)c1nc(O)c(-c2cc(Cl)cc(Cl)c2)c(O)n1 [Compound 8h, 5-(3,5-Dichlorophenyl)-2-(2-phenylpropan-2-yl)pyrimidine-4,6-diol] | 4.29
4 | – | CCCCCCC(C)(C)c1nc(O)c(-c2cccc(C)c2)c(O)n1 [Compound 8j, 2-(2-Methyloctan-2-yl)-5-m-tolylpyrimidine-4,6-diol] | 4.26
